Test results as given in US20220160651A1, “RAPIDLY IMPROVING ENDOTHELIAL FUNCTION, REDUCING ARTERIAL STIFFNESS AND REVERSING CALCIFICATION OF BLOOD VESSELS BY ADMINISTERING VITAMIN K” (KAYDENCE PHARMA AS, priority 2019, published 2022).

Assays:
[1] = test system: kidney transplantation patients; test: Clinical study: non-invasive pulse wave velocity measurement of arterial stiffness; type: in vivo, human; conditions: 360 ug/day, after 8 weeks of treatment, kidney transplant patients
Experimental: Clinical Study to study the efficacy and safety of Vitamin K2 supplementation on arterial stiffness, the rigidity of arterial walls, in kidney transplantation patients.
A clinical study was carried out. Arterial wall property measurements were taken at t=0 and t=8 weeks and show a dramatic improvement in arterial wall flexibility. This is good support for concluding that the ingestion of vitamin K, even over this short period, is an effective way of improving endothelial function, reducing arterial stiffness and reducing calcification. […] It is surprising and unexpected because calcification is a slow progressive process and it was thought that reversing this process would also be slow and progressive.
Participants were enrolled in a clinical trial in which the effects of vitamin K2 were determined for patients who had recently undergone a kidney transplant. At the beginning of the study, patients were subjected to a non-invasive pulse wave velocity measurement to measure arterial stiffness/flexibility, as well as blood analysis. The study participants were then instructed to receive a specific daily dose of MenaQ7 vitamin K2 menaquinone-7 (360 ug/day) for a total of 8 weeks. At the end of 8 weeks, patients were again examined with a follow-up examination, a non-invasive pulse wave velocity measurement and blood analysis and drug treatment was discontinued.

[2] = mouse, in vivo, 5 mg/kg/day

In the case of `CC(C)=CCC/C(C)=C/CC/C(C)=C/CC/C(C)=C/CC/C(C)=C/CC/C(C)=C/CC/C(C)=C/CC1=C(C)C(=O)c2ccccc2C1=O` [MK-7, menaquinone-7], the “mean reduction in measured pulse-wave velocity” value [1] was 30%, the “concentration of MK4 2,3-epoxide in plasma” value [2] was “maintained at similar level in all groups” and the “plasma concentration of MK-4” value [2] was “dose-dependent increase”. For the same compound, the “vitamin K1 and K1 2,3-epoxide plasma concentration” value [2] was “tent to decrease with increasing dose”.
